Values quoted from earlier work in US20080280370A1, “METHODS AND COMPOSITIONS FOR DETECTING […] METABOLITES THEREOF” (priority 2007, published 2008).

Columns and labels:
[1] = biological target: T1, EPSPS (enolpyruvylshikimate-3-phosphate synthase) enzyme (Arabidopsis thaliana, UniProt P05466); details: enzyme required for biosynthesis of aromatic amino acids in plants
T1 sequence (P05466 77-520): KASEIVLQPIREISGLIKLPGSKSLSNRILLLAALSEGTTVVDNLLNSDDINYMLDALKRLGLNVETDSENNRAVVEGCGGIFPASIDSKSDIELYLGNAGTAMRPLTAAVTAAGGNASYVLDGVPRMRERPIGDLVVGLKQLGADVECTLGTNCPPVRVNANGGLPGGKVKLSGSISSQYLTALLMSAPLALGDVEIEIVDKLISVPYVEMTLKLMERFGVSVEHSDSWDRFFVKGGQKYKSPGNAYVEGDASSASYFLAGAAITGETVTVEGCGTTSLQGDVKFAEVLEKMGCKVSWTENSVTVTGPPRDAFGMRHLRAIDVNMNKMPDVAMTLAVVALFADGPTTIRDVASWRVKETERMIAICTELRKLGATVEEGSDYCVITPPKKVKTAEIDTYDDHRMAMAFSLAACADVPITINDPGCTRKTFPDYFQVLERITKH

[2] = test system: plants; details: metabolite formed by glyat acetylation; Castle et al. (2004)

| Compound | Effect on EPSPS enzyme [1] | Phytotoxicity [2] |
| --- | --- | --- |
| O=C(O)CNCP(=O)(O)O [glyphosate, N-(phosphonomethyl)glycine] | inhibits | – |
| CC(=O)N(CC(=O)O)CP(=O)(O)O [N-acetylglyphosate, N-Acetyl-N-(phosphonomethyl)glycine] | – | non-phytotoxic |
